# Source: article PMC7493682, “Caffeine Targets SIRT3 to Enhance SOD2 Activity in Mitochondria” (Frontiers in Cell and Developmental Biology, 2020)
# Target: T1, SIRT3 (Homo sapiens, UniProt Q9NTG7)
# T1 sequence (Q9NTG7 102-399): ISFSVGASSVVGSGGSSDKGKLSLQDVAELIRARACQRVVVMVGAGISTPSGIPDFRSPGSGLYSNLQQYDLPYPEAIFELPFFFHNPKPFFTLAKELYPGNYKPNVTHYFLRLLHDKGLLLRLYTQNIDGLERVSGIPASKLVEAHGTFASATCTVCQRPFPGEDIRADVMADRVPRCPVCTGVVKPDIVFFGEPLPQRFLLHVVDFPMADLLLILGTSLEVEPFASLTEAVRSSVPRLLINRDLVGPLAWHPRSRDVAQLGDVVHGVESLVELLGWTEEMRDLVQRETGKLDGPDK
# Experiment: SPR (Biacore S200, immobilized SIRT3); also BLI (KD […]) and activation of the pure enzyme
# Assay type: binding
compound,measurement,value
"Cn1c(=O)c2c(ncn2C)n(C)c1=O [Caffeine, 1,3,7-trimethylxanthine]",Kd,686 nM
